One data set deals with MCF-7 cells. Briefly: Cell cycle analysis by DNA flow cytometry. Type of data set: cell-based, human. As for the experimental part: MCF-7 Cells were placed in a six-well plate at 1 × 10^5 concentration of cells/well and then kept for incubation for 24 h. […] Cells were then collected and fixed for 12 h using ice-cold 70% ethanol at 4 °C. Ethanol was then removed, and cells were washed with cold phosphate buffer saline (PBS, 0.5 ml) and preserved for 30 min at 37 °C. The cells were stained for 30 min with propidium iodide in the dark. A flow cytometer was used to detect DNA content.

Another data set concerns the target T1, PDGFR_ẞ (Homo sapiens, UniProt P09619).
T1 construct: purchased
Briefly: PDGFR_ẞ kinase assay kit (Kinase-Glo MAX). In kind it is biochemical. Here is the method: (§1) The receptor tyrosine kinases, namely EGFR, VEGFR-2, and PDGFR_ẞ Kinases Assay Kits, are designed to measure EGFR, VEGFR-2, and PDGFR_ẞ Kinases’ activities for screening and profiling applications using Kinase-Glo® MAX as a detection reagent. The EGFR, VEGFR-2, and PDGFR_ẞ Kinases Assay Kits come in a convenient 96-well format, with enough purified recombinant EGFR enzyme, EGFR substrate, ATP, and kinase assay buffer for 100 enzyme reactions. The master mixture (25 µl per well) was equipped out of Kinase assay buffer (6 µl), ATP (500 µM, 1 µl), PTK substrate (50x, 1 µl), and water (17 µl) and transferred into each well. […] EGFR, VEGFR-2, and PDGFR_ẞ Kinases were softened on ice. Its tube was spun briefly to recover its full content of the tube. These enzymes were diluted with 1 × Kinase assay buffer to 1 ng/ µl. The reaction was initiated by adding 20 µl of diluted EGFR, VEGFR-2, and PDGFR_ẞ enzymes to the wells designated “Positive Control” and “Test Inhibitor Control.” The plate was incubated at 30 °C for 40 min. After the 40-min reaction, the Kinase-Glo Max (50 µl) reagent was added to each well. The plate was covered with aluminum foil and incubated at room temperature for 15 min, and the luminescence was measured using the microplate reader.
(Kinase-Glo reads ATP consumption through a luciferase reaction.)

The next data set concerns the target T2, VEGFR-2 (KDR) (Homo sapiens, UniProt P35968).
T2 construct: purchased
Briefly: VEGFR-2 kinase assay kit (Kinase-Glo MAX). Type of data set: biochemical. Here is the method:
as §1

The test system of the next data set is tubulin. As to the kind of experiment: Tubulin polymerization inhibition assay. Type of data set: biochemical.

Data on two compounds can be found in article PMC11070402, “New antiproliferative 3-substituted oxindoles inhibiting EGFR/VEGFR-2 and tubulin polymerization” (Molecular Diversity, 2023).

T2 sequence (P35968 20-1356): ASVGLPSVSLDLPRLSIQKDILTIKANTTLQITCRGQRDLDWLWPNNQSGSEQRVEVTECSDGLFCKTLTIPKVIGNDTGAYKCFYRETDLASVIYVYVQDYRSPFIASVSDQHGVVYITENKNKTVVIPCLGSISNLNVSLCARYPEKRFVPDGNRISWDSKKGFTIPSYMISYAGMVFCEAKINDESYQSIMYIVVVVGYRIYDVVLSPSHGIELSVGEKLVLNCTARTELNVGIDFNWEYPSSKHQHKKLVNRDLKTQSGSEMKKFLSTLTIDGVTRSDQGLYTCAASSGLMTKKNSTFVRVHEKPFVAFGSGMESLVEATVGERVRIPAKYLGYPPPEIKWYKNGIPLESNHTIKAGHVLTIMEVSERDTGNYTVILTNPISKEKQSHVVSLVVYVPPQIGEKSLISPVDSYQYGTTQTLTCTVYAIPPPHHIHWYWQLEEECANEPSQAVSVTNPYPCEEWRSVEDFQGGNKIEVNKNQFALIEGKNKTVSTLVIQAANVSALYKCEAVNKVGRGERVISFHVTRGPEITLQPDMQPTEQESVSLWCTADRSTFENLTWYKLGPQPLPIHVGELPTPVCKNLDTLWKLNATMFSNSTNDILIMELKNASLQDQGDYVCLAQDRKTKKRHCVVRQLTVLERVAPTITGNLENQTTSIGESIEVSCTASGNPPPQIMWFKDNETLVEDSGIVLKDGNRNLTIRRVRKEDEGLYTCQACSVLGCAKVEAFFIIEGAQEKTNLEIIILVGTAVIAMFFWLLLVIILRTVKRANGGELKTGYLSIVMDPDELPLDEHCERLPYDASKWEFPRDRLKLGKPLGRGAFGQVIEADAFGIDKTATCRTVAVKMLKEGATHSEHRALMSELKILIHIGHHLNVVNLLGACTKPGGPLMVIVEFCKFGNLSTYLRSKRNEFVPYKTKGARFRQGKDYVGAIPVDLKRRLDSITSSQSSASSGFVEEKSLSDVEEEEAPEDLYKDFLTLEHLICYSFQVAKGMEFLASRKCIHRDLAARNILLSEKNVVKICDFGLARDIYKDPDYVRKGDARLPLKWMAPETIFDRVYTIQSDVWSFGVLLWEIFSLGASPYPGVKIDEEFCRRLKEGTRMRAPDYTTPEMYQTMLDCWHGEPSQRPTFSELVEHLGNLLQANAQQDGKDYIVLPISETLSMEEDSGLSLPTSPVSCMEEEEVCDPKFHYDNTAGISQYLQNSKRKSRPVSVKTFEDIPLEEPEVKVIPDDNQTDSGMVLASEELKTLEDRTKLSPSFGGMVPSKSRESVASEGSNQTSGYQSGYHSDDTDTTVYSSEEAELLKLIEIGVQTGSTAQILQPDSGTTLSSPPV
T1 sequence (P09619 33-1106, species assumed): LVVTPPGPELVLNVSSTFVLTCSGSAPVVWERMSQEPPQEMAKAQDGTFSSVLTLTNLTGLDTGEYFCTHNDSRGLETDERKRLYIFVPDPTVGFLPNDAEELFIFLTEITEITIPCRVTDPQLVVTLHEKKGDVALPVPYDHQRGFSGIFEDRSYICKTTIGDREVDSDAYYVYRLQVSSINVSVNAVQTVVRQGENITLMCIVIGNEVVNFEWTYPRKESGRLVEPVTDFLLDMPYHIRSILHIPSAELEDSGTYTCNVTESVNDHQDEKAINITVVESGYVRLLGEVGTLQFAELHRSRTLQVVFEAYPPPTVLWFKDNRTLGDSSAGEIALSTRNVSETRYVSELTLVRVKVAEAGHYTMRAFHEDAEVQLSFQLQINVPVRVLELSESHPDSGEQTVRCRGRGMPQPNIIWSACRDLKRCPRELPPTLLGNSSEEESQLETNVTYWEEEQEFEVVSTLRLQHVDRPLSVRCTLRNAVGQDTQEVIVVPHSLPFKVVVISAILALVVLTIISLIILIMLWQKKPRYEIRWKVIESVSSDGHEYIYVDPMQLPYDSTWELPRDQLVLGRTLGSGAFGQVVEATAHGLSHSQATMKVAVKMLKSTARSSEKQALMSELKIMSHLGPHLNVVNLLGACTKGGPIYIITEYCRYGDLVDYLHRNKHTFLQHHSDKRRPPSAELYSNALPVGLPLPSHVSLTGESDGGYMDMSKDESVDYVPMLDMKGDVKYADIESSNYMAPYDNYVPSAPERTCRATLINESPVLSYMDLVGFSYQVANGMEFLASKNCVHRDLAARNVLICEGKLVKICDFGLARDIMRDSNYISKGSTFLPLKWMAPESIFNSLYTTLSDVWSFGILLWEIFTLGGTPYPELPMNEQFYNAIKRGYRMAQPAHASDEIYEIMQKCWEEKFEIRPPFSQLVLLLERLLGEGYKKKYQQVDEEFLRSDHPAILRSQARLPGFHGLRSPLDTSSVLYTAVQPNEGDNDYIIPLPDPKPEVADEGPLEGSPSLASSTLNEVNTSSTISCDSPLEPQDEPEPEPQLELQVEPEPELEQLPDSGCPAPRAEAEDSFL

As usually defined, the IC50 is the concentration that inhibits the measured activity by half. Take `O=C1Nc2ccccc2C1=Cc1ccc(OCC(=O)c2ccc(Br)cc2)cc1` [Compound 6f, 3-{4-[2-(4-Bromophenyl)-2-oxoethoxy]benzylidene}indolin-2-one]: the “cell cycle arrest phase” value in the data set on MCF-7 cells (MCF-7 cells, flow cytometry) was “G0–G1phase”. Moreover, in the data set on MCF-7 cells (MCF-7 treated with IC50 of compound 6f (19.43 μM in method), 24 h, control 40.68), the “Freq G1 (percentage of cells)” value stood at 51.30%. The “%inh PDGFRβ” value was 25.63% on PDGFR_ẞ (conc 0.01 (unit not given)), 40.59% on PDGFR_ẞ (conc 0.1 (unit not given)), 70.36% on PDGFR_ẞ (conc 1 (unit not given)) and 88.18% at PDGFR_ẞ (conc 10 (unit not given)). The concentration for half-maximal inhibition (IC50) was 3.18 ± 0.007 µM on PDGFR_ẞ (read-out: PDGFR_ẞ inhibition (IC50 ± SD)), 5.75 ± 0.011 µM at VEGFR-2 (KDR) (read-out: VEGFR-2 inhibition (IC50 ± SD)) and 7.99 ± 0.49 µM in the data set on tubulin (read-out: Tubulin polymerization inhibition (IC50 ± SD)). The “%inh VEGFR-2” value on VEGFR-2 (KDR) (conc 0.01 (unit not given)) amounted to 12.36%; at VEGFR-2 (KDR) (conc 0.1 (unit not given)), 36.13%; on VEGFR-2 (KDR) (conc 1 (unit not given)), 73.94%; at VEGFR-2 (KDR) (conc 10 (unit not given)), 88.74%. Besides, the “%inh Tub” value in the data set on tubulin (conc 0.1 (uM printed only in the CA-4 head)) is 7%; in the data set with tubulin (conc 1 (uM printed only in the CA-4 head)), 15%; in the data set on tubulin (conc 10 (uM printed only in the CA-4 head)) it was 56%; with tubulin (conc 100 (uM printed only in the CA-4 head)) it was 80%.
By melting point is commonly meant the temperature of the solid-liquid transition. Consider `O=C1Nc2cc(Cl)ccc2C1=Cc1ccc(OCC(=O)c2ccc(Br)cc2)cc1` [Compound 6g, 6-Chloro-3-{4-[2-(4-bromophenyl)-2-oxoethoxy]benzylidene}indolin-2-one], for which the melting point is 249 to 251 °C.
